# Reference: patent publication US8507547B2, “Anti-fatigue agents and oral compositions containing andrographolide as active ingredient” (Suntory Holdings Limited, priority 2007, dated 2013)
# How the values were obtained:
# Sprague Dawley rats = experiment: Measurement of fatigue substance in blood (creatine kinase activity in blood plasma after forced exercise); type: in vivo; details: 2 mg per kilogram of body weight orally twice daily, five times in total, before forced exercise stress; FIG. 4
# Source text: The fourth test is measurement of an amount of fatigue substance. This is described in detail below in Example 4. The test is to determine the effect of administration of the test substance on the amount of fatigue substance at the time when physical or mental stress is applied. Since the fatigue substances change according to the type, intensity, duration, or the like of fatigue that is applied, they are not clearly defined as an indicator, but creatine kinase in blood can be named as one of the candidate substances. Creatine kinase is an enzyme that catalyzes high-energy phosphoryl group transfer from creatine phosphate to ADP, and is considered to serve physiological functions of consuming creatine phosphate to supply ATP at the time of massive energy consumption, such as twitching of skeletal muscles upon instantaneous short-term exercise, in an in vivo energy system. […] It is therefore said that the level of damage on the muscle can be determined by measuring the creatine kinase activity in blood. […]
# Muscle fatigue in a living body was determined using creatine kinase levels in blood as a reference index. […] Blood was taken out from a tale vein immediately after the exercise stress, and creatine kinase activity in blood plasma was measured with a biochemistry automatic analyzer (Model 7070, Hitachi High-Technologies Corporation) using an enzyme method. […]
# Balb/c mice = experiment: Measurement of liver fatigue (serum GOT, GPT, liver TBARS) after water immersion and sleep disturbance; type: in vivo; details: 8 mg per kilogram of body weight orally once daily during two days of water immersion
# Protocol: The second test is measurement of liver fatigue. This is described in detail below in Example 2. […] In a liver of this model, GOT and GPT levels increased, compared with those of a normally-reared group. GOT (glutamic oxalacetic transaminase) and GPT (glutamic pyruvic transaminase), which are enzymes present in hepatic cells, are known to escape into blood when hepatic cells are damaged. Therefore, a level of damage on the liver is determined by measuring GOT and GPT in blood. […] It is inferred that the long-term general fatigue condition caused alteration in liver function, disruption of oxygen reduction system balance, and the like to result in accumulation of lipid peroxide. This is considered to support the fact that this model is an organ fatigue model.
# That is to say, since this animal model is also an organ fatigue model, anti-fatigue action against organ fatigue would be confirmed if it is observed that administration of the test substance, for instance, returns a changed organ fatigue marker, such as GOT, GPT, and TBARS mentioned above, to a normal level and reduces change in the organ markers. Such anti-fatigue action is considered to regulate overall activity of internal organs to condition metabolism, thereby being involved in reduction of physical and mental fatigue stress, maintenance of energy, improvement in endurance, and the like.
# Effect of andrographolide on fatigue from water immersion and sleep disturbance was examined using a partially modified method of Tanaka et al. (Neuroscience Let. 352, 159-162, 2003). […] Blood serum was separated from the blood, and GOT (glutamic oxalacetic transaminase) and GPT (glutamic pyruvic transaminase) in the blood serum were measured with a small-sized biochemistry automatic analyzer (Model 7070, Hitachi High-Technologies Corporation). Further, levels of lipid peroxide from liver were measured as a level of TBARS (thiobarbituric acid reactive substances). […] Then, the TBARS levels were measured in accordance with the method of Ohkawa et al. Anal. Biochem. 95. […]
smiles,measurement,setting,value
C=C1CC[C@@H]2[C@](C)(CO)[C@H](O)CC[C@@]2(C)[C@@H]1C/C=C1/C(=O)OC[C@H]1O [andrographolide],creatine kinase activity in blood plasma,Sprague Dawley rats,decrease in creatine kinase activity was observed
same,GOT level in the blood serum,Balb/c mice; FIG. 2(A),prevented from increasing
same,GPT level in the blood serum,Balb/c mice; FIG. 2(B),prevented from increasing
same,liver TBARS level,Balb/c mice; FIG. 2(C),prevented from increasing
